This passage reports IC50 results from patent publication US10894784B2, “Heteroarylbenzimidazole compounds” (BAYER PHARMA AKTIENGESELLSCHAFT, priority 2015, dated 2021).

In general, IC50 refers to the concentration that gives 50% inhibition.

The target of this test is TBK1 (Homo sapiens (Human), UniProt Q9UHD2). As to the kind of experiment: TBK1 low ATP kinase assay (in vitro assay 1). The note with it: in vitro assay 1, read-out: TBK1 low ATP kinase assay IC50. Type of test: biochemical.
Sequence of TBK1 (Q9UHD2 whole entry): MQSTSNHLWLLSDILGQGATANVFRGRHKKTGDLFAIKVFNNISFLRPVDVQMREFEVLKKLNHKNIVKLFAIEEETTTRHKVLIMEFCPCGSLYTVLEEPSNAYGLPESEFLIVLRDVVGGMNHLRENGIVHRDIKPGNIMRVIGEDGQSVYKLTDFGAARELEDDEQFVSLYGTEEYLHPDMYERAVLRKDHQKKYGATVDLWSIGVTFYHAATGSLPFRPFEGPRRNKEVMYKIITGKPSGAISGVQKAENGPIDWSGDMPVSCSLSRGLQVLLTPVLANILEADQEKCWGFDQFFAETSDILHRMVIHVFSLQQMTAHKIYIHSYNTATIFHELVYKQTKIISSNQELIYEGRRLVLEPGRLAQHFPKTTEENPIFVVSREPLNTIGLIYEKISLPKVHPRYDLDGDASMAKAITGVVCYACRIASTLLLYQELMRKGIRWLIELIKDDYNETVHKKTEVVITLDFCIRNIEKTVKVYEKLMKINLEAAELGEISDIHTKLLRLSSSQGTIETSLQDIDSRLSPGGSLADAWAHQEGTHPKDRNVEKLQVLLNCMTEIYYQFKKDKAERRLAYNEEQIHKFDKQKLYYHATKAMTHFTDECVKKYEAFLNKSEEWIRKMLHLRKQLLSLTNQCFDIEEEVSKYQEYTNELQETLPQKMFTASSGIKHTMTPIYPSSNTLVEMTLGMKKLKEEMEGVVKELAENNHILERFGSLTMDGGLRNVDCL
With `Cc1noc(-c2ccc3nc(Nc4cc(CN5CCN(c6cncc(Cl)n6)CC5)ccn4)[nH]c3c2)n1` [Example 101.29, N-(4-{[4-(6-chloropyrazin-2-yl)piperazin-1-yl]methyl}pyridin-2-yl)-6-(3-methyl-1,2,4-oxadiazol-5-yl)-1H-benzimidazol-2-amine], the IC50 stood at 0.45 µM.

Regarding `CN(C)c1ncnc(-c2ccc3nc(Nc4cc(CN5CCN(C(=O)CC(F)(F)F)CC5)ccn4)[nH]c3c2)c1Cl` [Example 179.02, 1-(4-{[2-({6-[5-chloro-6-(dimethylamino)pyrimidin-4-yl]-1H-benzimidazol-2-yl}amino)pyridin-4-yl]methyl}piperazin-1-yl)-3,3,3-trifluoropropan-1-one], the IC50 came to 1.14 µM.

In the case of `O=C(CC(F)(F)F)N1CCN(Cc2ccnc(Nc3nc4ccc(-c5cc(C6CCOCC6)ncn5)cc4[nH]3)c2)CC1` [Example 199.02, 3,3,3-trifluoro-1-(4-{[2-({6-[6-(tetrahydro-2H-pyran-4-yl)pyrimidin-4-yl]-1H-benzimidazol-2-yl}amino)pyridin-4-yl]methyl}piperazin-1-yl)propan-1-one], the IC50 was determined as 0.0419 µM.

With `N#Cc1cnccc1-c1ccc2nc(Nc3cc(CN4CCN(C(=O)C5CC5)CC4)ccn3)[nH]c2c1` [Example 103.01, 4-{2-[(4-{[4-(cyclopropylcarbonyl)piperazin-1-yl]methyl}pyridin-2-yl)amino]-1H-benzimidazol-6-yl}pyridine-3-carbonitrile], the IC50 was found to be 0.36 µM.

Regarding `CCN(CC)c1cc(-c2ccc3nc(Nc4cc(CN5CCN(C(=O)C6CC6)CC5)ccn4)[nH]c3c2)ncn1` [Example 155.03, cyclopropyl(4-{[2-({6-[6-(diethylamino)pyrimidin-4-yl]-1H-benzimidazol-2-yl}amino)pyridin-4-yl]methyl}piperazin-1-yl)methanone], the IC50 stood at 0.017 µM.

Turning to `CC(c1ccnc(Nc2nc3ccc(-c4cc(OCC(F)(F)F)ncn4)cc3[nH]2)c1)N1CCN(C(=O)C2CC2)CC1` (single isomer, unassigned) [Example 119.03, cyclopropyl(4-{(1R or 1S)-1-[2-({6-[6-(2,2,2-trifluoroethoxy)pyrimidin-4-yl]-1H-benzimidazol-2-yl}amino)pyridin-4-yl]ethyl}piperazin-1-yl)methanone], the IC50 worked out at 0.00593 µM.

For `Cc1noc(-c2ccc3nc(Nc4cc(CN5CCN(c6ccncc6)CC5)ccn4)[nH]c3c2)n1` [Example 101.12, 6-(3-methyl-1,2,4-oxadiazol-5-yl)-N-(4-{[4-(pyridin-4-yl)piperazin-1-yl]methyl}pyridin-2-yl)-1H-benzimidazol-2-amine], the 50% inhibitory concentration (IC50) was determined as 0.45 µM.

On to `Cc1nccc(-c2ccc3nc(Nc4cc(CN5CCN(C(=O)C6CC6)CC5)ccn4)[nH]c3c2)n1` [Example 24.01.03, cyclopropyl{4-[(2-{[6-(2-methylpyrimidin-4-yl)-1H-benzimidazol-2-yl]amino}pyridin-4-yl)methyl]piperazin-1-yl}methanone], for which the IC50 came out at 0.0432 µM.

With `O=C(C1CC1)N1CCN(Cc2cc(Nc3nc4ccc(-c5ccncn5)cc4[nH]3)nc(C(F)(F)F)c2)CC1` [Example 23.03.01, cyclopropyl(4-{[2-{[6-(pyrimidin-4-yl)-1H-benzimidazol-2-yl]amino}-6-(trifluoromethyl)pyridin-4-yl]methyl}piperazin-1-yl)methanone], the IC50 worked out at 0.161 µM.

As to `O=C(C1CC1)N1CCN(Cc2ccnc(Nc3nc4ccc(-c5cc(NC6CC6)ncn5)cc4[nH]3)c2)CC1` [Example 151.03, cyclopropyl(4-{[2-({6-[6-(cyclopropylamino)pyrimidin-4-yl]-1H-benzimidazol-2-yl}amino)pyridin-4-yl]methyl}piperazin-1-yl)methanone], the IC50 was found to be 0.001 µM.

For the molecule `CC(=O)N1CCN(Cc2ccnc(Nc3nc4ccc(-c5ncnc(C)c5C)cc4[nH]3)c2)CC1` [Example 32.03, 1-{4-[(2-{[6-(5,6-dimethylpyrimidin-4-yl)-1H-benzimidazol-2-yl]amino}pyridin-4-yl)methyl]piperazin-1-yl}ethanone], the IC50 was 5.19 µM.

Consider `COc1ccc(-c2ccc3nc(Nc4cc(CN5CCN(C(=O)OC(C)(C)C)CC5)ccn4)[nH]c3c2)cn1` [Example 13.01, tert-butyl 4-[(2-{[6-(6-methoxypyridin-3-yl)-1H-benzimidazol-2-yl]amino}pyridin-4-yl)methyl]piperazine-1-carboxylate], for which the IC50 is 1.25 µM.

Consider `CC(c1ccnc(Nc2nc3ccc(-c4cc(C(F)(F)F)nn4C)cc3[nH]2)c1)N1CCN(C(=O)C2CC2)CC1` (single isomer, unassigned) [Example 88.03, cyclopropyl(4-{(1R or 1S)-1-[2-({6-[1-methyl-3-(trifluoromethyl)-1H-pyrazol-5-yl]-1H-benzimidazol-2-yl}amino)pyridin-4-yl]ethyl}piperazin-1-yl)methanone], for which the IC50 was found to be 0.99 µM.

As for `Cc1nccc(-c2ccc3nc(Nc4cc(C(C)N5CCN(C(=O)CC(F)(F)F)CC5)ccn4)[nH]c3c2)n1` (single isomer, unassigned) [Example 24.05.01.A, 3,3,3-trifluoro-1-{4-[(1R or 1S)-1-(2-{[6-(2-methylpyrimidin-4-yl)-1H-benzimidazol-2-yl]amino}pyridin-4-yl)ethyl]piperazin-1-yl}propan-1-one], the IC50 is 0.0454 µM.

For the molecule `CC(c1ccnc(Nc2nc3ccc(-c4cnn(CC5CC5(C)C)c4)cc3[nH]2)c1)N1CCN(C(=O)OC(C)(C)C)CC1` (single isomer, unassigned) [Example 67.01, tert-butyl 4-[(1R or 1S)-1-(2-{[6-(1-{[(1RS)-2,2-dimethylcyclopropyl]methyl}-1H-pyrazol-4-yl)-1H-benzimidazol-2-yl]amino}pyridin-4-yl)ethyl]piperazine-1-carboxylate], the IC50 is 0.046 µM.

In the case of `O=C(C1CC1)N1CCN(Cc2ccnc(Nc3nc4ccc(-c5cc(NC6CCC6)ncn5)cc4[nH]3)c2)CC1` [Example 152.03, (4-{[2-({6-[6-(cyclobutylamino)pyrimidin-4-yl]-1H-benzimidazol-2-yl}amino)pyridin-4-yl]methyl}piperazin-1-yl)(cyclopropyl)methanone], the IC50 amounted to 0.00096 µM.

In the case of `Cn1cc(-c2ccc3nc(Nc4cc(CN5CCN(C(=O)C6CCC6)CC5)ccn4)[nH]c3c2)cn1` [Example 37.04, cyclobutyl{4-[(2-{[6-(1-methyl-1H-pyrazol-4-yl)-1H-benzimidazol-2-yl]amino}pyridin-4-yl)methyl]piperazin-1-yl}methanone], the IC50 is 0.0739 µM.

Turning to `O=C(C1CC1)N1CCN(Cc2ccnc(Nc3nc4ccc(-c5nc(Cc6ccccc6)no5)cc4[nH]3)c2)CC1` [Example 21.01, {4-[(2-{[6-(3-benzyl-1,2,4-oxadiazol-5-yl)-1H-benzimidazol-2-yl]amino}pyridin-4-yl)methyl]piperazin-1-yl}(cyclopropyl)methanone], the IC50 is 0.193 µM.

For the molecule `O=C(C1CC1)N1CCN(Cc2ccnc(Nc3nc4ccc(-c5nc(C6CC6)c[nH]5)cc4[nH]3)c2)CC1` [Example 43.03, cyclopropyl{4-[(2-{[6-(4-cyclopropyl-1H-imidazol-2-yl)-1H-benzimidazol-2-yl]amino}pyridin-4-yl)methyl]piperazin-1-yl}methanone], the IC50 is 0.696 µM.

With `COc1c(OCC2CC2)ncnc1-c1ccc2nc(Nc3cc(CN4CCN(C(=O)OC(C)(C)C)CC4)ccn3)[nH]c2c1` [Example 65.01.01, tert-butyl 4-{[2-({6-[6-(cyclopropylmethoxy)-5-methoxypyrimidin-4-yl]-1H-benzimidazol-2-yl}amino)pyridin-4-yl]methyl}piperazine-1-carboxylate], the IC50 is 0.255 µM.

Regarding `Cc1nccc(-c2ccc3nc(Nc4cc(C(C)N5CCN(C(=O)CC6CC6)CC5)ccn4)[nH]c3c2)n1` (single isomer, unassigned) [Example 24.05.03.B, 2-cyclopropyl-1-{4-[(1S or 1R)-1-(2-{[6-(2-methylpyrimidin-4-yl)-1H-benzimidazol-2-yl]amino}pyridin-4-yl)ethyl]piperazin-1-yl}ethanone], the IC50 came out at 0.0138 µM.

With `Cc1cncnc1-c1ccc2nc(Nc3cc(CN4CCN(C(=O)CC(F)(F)F)CC4)ccn3)[nH]c2c1` [Example 184.02, 3,3,3-trifluoro-1-{4-[(2-{[6-(5-methylpyrimidin-4-yl)-1H-benzimidazol-2-yl]amino}pyridin-4-yl)methyl]piperazin-1-yl}propan-1-one], the IC50 was 0.201 µM.

Turning to `O=C(C1CC1)N1CCN(Cc2ccnc(Nc3nc4ccc(-c5nc(C6CCCC6)no5)cc4[nH]3)c2)CC1` [Example 19.01, {4-[(2-{[6-(3-cyclopentyl-1,2,4-oxadiazol-5-yl)-1H-benzimidazol-2-yl]amino}pyridin-4-yl)methyl]piperazin-1-yl}(cyclopropyl)methanone], the IC50 amounted to 0.414 µM.

`O=C(C1CC1)N1CCN(Cc2ccnc(Nc3nc4ccc(-c5c(F)cncc5Cl)cc4[nH]3)c2)CC1` [Example 132.03, {4-[(2-{[6-(3-chloro-5-fluoropyridin-4-yl)-1H-benzimidazol-2-yl]amino}pyridin-4-yl)methyl]piperazin-1-yl}(cyclopropyl)methanone]: the IC50 was 0.26 µM.

Regarding `CC(c1ccnc(Nc2nc3ccc(-c4cnn(C(C)C5CC5)c4)cc3[nH]2)c1)N1CCN(C(=O)CC(F)(F)F)CC1` (single isomer, unassigned) [Example 74.02, 1-{4-[(1R or 1S)-1-{2-[(6-{1-[(1RS)-1-cyclopropylethyl]-1H-pyrazol-4-yl}-1H-benzimidazol-2-yl)amino]pyridin-4-yl}ethyl]piperazin-1-yl}-3,3,3-trifluoropropan-1-one], the IC50 came out at 0.019 µM.

For `Cc1cc(-c2ccc3nc(Nc4cc(CN5CCN(C(=O)C6CC6)CC5)ccn4)[nH]c3c2)cc(C#N)n1` [Example 136.03, 4-{2-[(4-{[4-(cyclopropylcarbonyl)piperazin-1-yl]methyl}pyridin-2-yl)amino]-1H-benzimidazol-6-yl}-6-methylpyridine-2-carbonitrile], the IC50 is 0.021 µM.

For the molecule `COc1cc(-c2ccc3nc(Nc4cc(CN5CCN(C(=O)CC(F)(F)F)CC5)ccn4)[nH]c3c2)nc(C)n1` [Example 176.02, 3,3,3-trifluoro-1-{4-[(2-{[6-(6-methoxy-2-methylpyrimidin-4-yl)-1H-benzimidazol-2-yl]amino}pyridin-4-yl)methyl]piperazin-1-yl}propan-1-one], the IC50 was found to be 3.58 µM.
